Data reported in PMC5823469, “Unique pharmacological properties of serotoninergic G-protein coupled receptors from cestodes” (PLoS Neglected Tropical Diseases, 2018).
Where two headings read alike, the source gives them in different places.

Tests used:
5-HT7Egran1 = 5-HT7Egran1 (Echinococcus canadensis, UniProt A0A482LU10); test: cell-based; type: cell-based, Echinococcus granulosus; details: for pharmacological behaviour (agonist/antagonist, efficacy) in cAMP assay: 5-HT7Egran1
Protocol: (§1) HEK-293 cells (ATCC CRL-1573.3) were cultured in growth media [DMEM (Gibco), 10% heat inactivated fetal bovine serum (Gibco), penicillin (100units/mL), streptomycin (100μg/mL) and L-glutamine (290μg/mL)] and used for assays between passages 5 and 25. For cestode GPCR heterologous expression assays, cells were transfected (Lipofectamine 2000, Invitrogen) at 80% confluency approximately 16 hours after seeding within T-25 culture flasks with a 1:1 ratio of human codon optimized cestode GPCR cDNA (subcloned into a pcDNA3.1(-) mammalian expression vector) and cDNA encoding the pGloSensor 22-F plasmid (Promega). The following day, cells were trypsinized, centrifuged (300g/5min), resuspended in DMEM supplemented with 1% dialyzed FBS (Gibco) and plated in 96 well, solid white plates (Corning, cat # 3917). After overnight culture to allow adherence, media was exchanged for assay buffer (HBSS supplemented with 0.1% BSA, 20mM HEPES (pH 7.4), and GloSensor reagent (Promega). cAMP-luminescence assays were performed following addition of a phosphodiesterase inhibitor (3-isobutyl-1-methylxanthine, IBMX; 200μM) using a GloMax-Multi Detection System plate reader (Promega) as described previously.

5-HT7Egran2 = 5-HT7Egran2 (Echinococcus canadensis, UniProt A0A482LXK0); test: cell-based; type: cell-based, Echinococcus granulosus
Protocol: as §1

5-HT7Mco1 = 5-HT7Mco1 (Mesocestoides corti, UniProt A0A482LRJ4); test: cell-based; type: cell-based
Protocol: as §1

[1] = test system: Mesocestoides corti tetrathyridia; test: Motility index of tetrathyridia, WMicrotracker (light scattering)
Protocol: For the motility index measurement, the method of Camicia et al. was followed with minor modifications. In the case of E. granulosus, protoscoleces were mantained in RPMI medium with high glucose (Gibco, USA) with 50 μg/ml of gentamicin for no more than 48 hours in order to avoid the potential differentiation of the protoscolex towards premicrocyst. The day before the experiment the protoscoleces were transferred to U-shape 96-well microplates (Greiner Bio-One, Germany) with approximately 125 parasites per 100 μl per well. This number of parasites per well was empirically determined as the best number of worms to perform the experiments. Movement was measured as described for C. elegans using a worm tracker device (WMicrotracker Designplus SRL, Argentina) which determines the motility index by the light-microbeam (100 μm wide; k = 880 nm; intensity <1 mW) scattering produced by the movement of parasites. Quantification of the signal was performed by applying a mathematical algorithm previously described for sperm viability determination (Patent number: US4176953, year of submission: 1978, year of publication: 1979).
To study the effect of 5-HT on the motility of M. corti tetrathyridia, only one worm per well was used as this was the empirically determined optimal number. […] M. corti tetrathyridia were used fresh, immediately after the mice was opened. […]

[2] = test system: Mesocestoides corti tetrathyridia; test: Motility of tetrathyridia by video imaging; details: period of 30 minutes
Protocol: In some experiments, alongside to the worm tracker motility analyses, the parasite motor activity was also measured with a digital video camera (Kodak easy share Z915 digital camera) coupled to an inverted microscope (Nikon, model TMS-F). Fresh parasites were processed in the same way as in previous sections in U-shape 96-well microplates, then incubated overnight at 37°C in a 5% CO2 atmosphere and finally video recorded with a digital camera after drug treatment. Images were obtained for a period of 15 seconds and the data were analyzed with ImageJ software (version 1.48, NIH, USA). […] To quantify this type of movements the method of Patocka et al. was followed with some modifications. The videos were transformed to stacks of TIFF images by using the Filmora video editor (Wondershare Filmora, version 8.2.3, downloaded from https://filmora.wondershare.es/) and then imported into ImageJ. First, the stacks were first converted to 8 bit type images. Next, the background was subtracted and then converted to a binary image by threshold adjust. […]
Statistical analyses were carried out using the GraphPad Prism Software package, version 6 for Windows (GraphPad Software, CA, USA). […] For image based assays, pixel changes in control and treatments were calculated and analyzed with one way ANOVA and Dunnett post-test were performed comparing all the concentrations with the control. […]

[3] = test system: Mesocestoides corti tetrathyridia; parameters: method as in PMID 12003065; details: 30 minutes of incubation; cited from earlier work
human 5-HT1A receptor = target: human 5-HT1A receptor; parameters: method as in PMID 24900203; details: cited from earlier work

Chain of 5-HT7Egran1 (A0A482LU10 entry or part of it): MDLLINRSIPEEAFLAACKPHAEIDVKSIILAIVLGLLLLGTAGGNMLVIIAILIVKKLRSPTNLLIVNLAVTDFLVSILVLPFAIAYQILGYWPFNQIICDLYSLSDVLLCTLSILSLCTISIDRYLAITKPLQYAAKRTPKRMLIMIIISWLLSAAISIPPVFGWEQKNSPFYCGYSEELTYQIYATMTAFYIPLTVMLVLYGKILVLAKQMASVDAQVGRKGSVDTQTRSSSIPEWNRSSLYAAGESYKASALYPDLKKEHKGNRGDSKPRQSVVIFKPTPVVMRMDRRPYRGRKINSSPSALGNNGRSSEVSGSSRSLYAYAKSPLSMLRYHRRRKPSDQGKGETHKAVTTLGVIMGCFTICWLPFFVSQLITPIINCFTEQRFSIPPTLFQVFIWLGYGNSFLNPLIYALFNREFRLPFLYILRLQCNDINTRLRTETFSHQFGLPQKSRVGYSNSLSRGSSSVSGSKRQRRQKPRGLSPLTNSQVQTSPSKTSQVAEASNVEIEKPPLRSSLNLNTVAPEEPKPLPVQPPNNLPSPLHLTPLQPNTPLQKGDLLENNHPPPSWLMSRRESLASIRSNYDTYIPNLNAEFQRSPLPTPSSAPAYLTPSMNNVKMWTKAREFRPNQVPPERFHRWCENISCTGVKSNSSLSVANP
Chain of 5-HT7Mco1 (A0A482LRJ4 entry or part of it): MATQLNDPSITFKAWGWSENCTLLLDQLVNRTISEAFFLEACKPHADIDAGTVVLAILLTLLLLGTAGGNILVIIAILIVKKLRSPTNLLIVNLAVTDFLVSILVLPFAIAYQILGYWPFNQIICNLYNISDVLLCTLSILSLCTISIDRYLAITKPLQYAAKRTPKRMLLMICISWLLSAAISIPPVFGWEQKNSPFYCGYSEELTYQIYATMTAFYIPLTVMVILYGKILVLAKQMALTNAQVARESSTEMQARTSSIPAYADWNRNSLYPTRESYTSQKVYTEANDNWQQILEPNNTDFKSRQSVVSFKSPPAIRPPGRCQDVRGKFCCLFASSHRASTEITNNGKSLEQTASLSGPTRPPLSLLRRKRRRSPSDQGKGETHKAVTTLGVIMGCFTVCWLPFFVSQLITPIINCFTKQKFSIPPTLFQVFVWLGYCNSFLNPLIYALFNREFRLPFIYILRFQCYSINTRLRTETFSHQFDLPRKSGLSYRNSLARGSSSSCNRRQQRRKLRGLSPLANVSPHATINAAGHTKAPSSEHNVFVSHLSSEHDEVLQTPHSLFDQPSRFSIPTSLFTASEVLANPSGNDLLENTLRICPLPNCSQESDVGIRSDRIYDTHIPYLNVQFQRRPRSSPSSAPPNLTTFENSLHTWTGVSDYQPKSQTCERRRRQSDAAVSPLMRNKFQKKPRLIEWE
Chain of 5-HT7Egran2 (A0A482LXK0 entry or part of it): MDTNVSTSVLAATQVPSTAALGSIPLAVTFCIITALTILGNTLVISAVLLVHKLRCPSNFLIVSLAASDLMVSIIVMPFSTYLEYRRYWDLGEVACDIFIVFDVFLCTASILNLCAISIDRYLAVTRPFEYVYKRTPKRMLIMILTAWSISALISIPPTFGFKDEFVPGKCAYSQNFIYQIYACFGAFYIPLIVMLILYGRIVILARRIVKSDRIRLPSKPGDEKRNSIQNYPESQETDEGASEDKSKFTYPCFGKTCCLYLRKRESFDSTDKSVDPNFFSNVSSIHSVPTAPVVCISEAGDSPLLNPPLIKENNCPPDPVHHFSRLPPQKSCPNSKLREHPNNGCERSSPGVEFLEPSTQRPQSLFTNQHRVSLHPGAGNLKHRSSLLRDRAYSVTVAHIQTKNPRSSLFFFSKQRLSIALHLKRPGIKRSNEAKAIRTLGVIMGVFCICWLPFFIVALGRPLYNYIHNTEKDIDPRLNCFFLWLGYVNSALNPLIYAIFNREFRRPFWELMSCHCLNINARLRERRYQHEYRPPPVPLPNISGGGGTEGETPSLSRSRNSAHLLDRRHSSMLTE

SMILES	EC50 (5-HT7Egran1) [nM]	EC50 (5-HT7Mco1) [nM]	pharmacological behaviour (agonist/antagonist, efficacy) in cAMP assay (5-HT7Egran1)	pharmacological behaviour (agonist/antagonist, efficacy) in cAMP assay (5-HT7Egran2; 5-HT7Egran2)	pharmacological behaviour (agonist/antagonist, efficacy) in cAMP assay (5-HT7Mco1; 5-HT7Mco1)	EC50 (5-HT7Egran2) [nM]	other results
NCCc1c[nH]c2ccc(O)cc12 [5-HT, 5-hydroxytryptamine]	171 ± 57	0.255 ± 0.063					fold-change in luminescence signal on addition of 5-HT (5-HT7Egran1; cells expressing 5-HT7Egran1): ~ 20 fold; EC50 (5-HT7Egran2; HEK-293 cells expressing 5-HT7Egran2, IBMX 200μM, read-out: EC50 for evoked cAMP production): 0.543 ± 0.107 nM; fold-change in luminescence signal on addition of 5-HT (5-HT7Egran2; cells expressing 5-HT7Egran2, basal coupling): ~ 3.3 fold; fold-change in luminescence signal on addition of 5-HT (5-HT7Mco1; cells expressing 5-HT7Mco1, basal coupling): ~ 2.5 fold; concentration from which stimulation of motility is observed ([1]; 30 minutes of incubation, light scattering method): ≥ 500 µM; concentration from which a significant rise of motility is seen ([1]; period of two hours, WMicrotracker, up to 2000 μM): ≥ 100 µM; concentration necessary for significant changes in motility [2]: 1000 µM; concentration previously reported to stimulate tetrathyridia motility [3]: 100 nM
CCN(CC)C(=O)[C@@H]1C=C2c3cccc4[nH]cc(c34)C[C@H]2N(C)C1 [LSD, Lysergic acid diethylamide]	35 ± 6	4.4 ± 1	potently activated	antagonist	potently activated		IC50 (5-HT7Egran2): 2.9 ± 0.2 nM
CN(C)c1cccc2c(S(=O)(=O)NCCCCC34CCCN3C(=O)N(CCCCN3CCN(c5cccc6ccccc56)CC3)C4=O)cccc12 (centres unmarked) [UCM120]							Ki (human 5-HT1A receptor): 2 nM
CN1C[C@H](C(=O)N[C@]2(C)O[C@@]3(O)[C@@H]4CCCN4C(=O)[C@H](Cc4ccccc4)N3C2=O)C=C2c3cccc4[nH]cc(c34)C[C@H]21 [ergotamine]	290 ± 49	354 ± 62	low efficacy partial agonist	higher efficacy partial agonist	higher efficacy partial agonist	234 ± 37	
NCCc1c[nH]c2ccccc12 [tryptamine]		~1000				~800	cAMP response to neurotransmitter (activation) (5-HT7Egran2; 10μM, cells expressing 5-HT7Egran2): activator; sensitivity to tryptamine relative to 5-HT (fold less sensitive) (5-HT7Egran2; 5-HT7Egran2): at least 1000 fold; cAMP response to neurotransmitter (activation) (5-HT7Mco1; 10μM, cells expressing 5-HT7Mco1): activator; sensitivity to tryptamine relative to 5-HT (fold less sensitive) (5-HT7Mco1; 5-HT7Mco1): at least 1000 fold
